From patent publication US20160175225A1, “Peptides and Their Use in the Treatment of Skin” (AVON PRODUCTS, INC., priority 2014, published 2016)

How the values were obtained:
[1] = test system: Human dermal fibroblast cells; assay: Hyaluronic acid (HA) secretion by human dermal fibroblasts (HA Elisa kit); type: cell-based; conditions: percent change relative to vehicle control, 48 h
Procedure: (§1) Human dermal fibroblast cells were grown in a 96 well plate in DMEM media (available from Corning, N.Y.) supplemented with 10% Fetal Bovine Serum (FBS) and L-glutamine (0.07×10^5 cells/plate). After reaching about 75% confluence, cells were transferred into DMEM media without FBS and incubated for 4-6 hours. Next, cells were treated with a peptide at 0.00001%, 0.0001%, 0.001% final concentration in DMEM media without FBS for 48 h. After treatment the media were collected, and cell viability was measured using MTT. Amount of collagen secreted was tested in the media using HTRF human pro-collagen I kit (available from Cisbio Inc., Bedford, Mass.). Amount of secreted Hyaluronic Acid (HA) was tested in the media using HA Elisa kit (available from Corgenix, Broomfield, Colo.).
(§2) Results are summarized in Table 5 below as percent change of pro-collagen I and/or HA production relative to vehicle control using the following keys with the peptide concentration provided in parentheses: […]

[2] = test system: Human dermal fibroblast cells; assay: Pro-collagen I secretion by human dermal fibroblasts (HTRF human pro-collagen I kit); type: cell-based; conditions: percent change relative to vehicle control, 48 h
Procedure: as §1, §2

[3] = concentration not given (tested at 0.00001%, 0.0001%, 0.001%)

Row | Substance | Increase in HA Production [1, 3] | Increase in Pro-Collagen I Production [2, 3] | Increase in HA Production ([1]; peptide concentration 0.001%) | also measured
1 | NRNV: peptide sequence NRNV, origin PDGF, tested in Table 5 | 0 (0: <20%) | 0 (0: <10%) | – | –
2 | RTPKISKPIKFELSG [Arg-Thr-Pro-Lys-Ile-Ser-Lys-Pro-Ile-Lys-Phe-Glu-Leu-Ser-Gly, peptide derived from CTGF] | – | 0 (0: <10%) | + (0.001%) (+: 20-50%) | –
3 | QPED: peptide sequence QPED, origin GDF11, tested in Table 5 | 0 (0: <20%) | 0 (0: <10%) | – | –
4 | IFGGTVYRS [Ile-Phe-Gly-Gly-Thr-Val-Tyr-Arg-Ser, peptide derived from CTGF] | – | – | ++ (0.001%) (++:50-90%) | Increase in Pro-Collagen I Production ([2]; peptide concentration 0.001%): + (0.001%) (+: 10-30%)
5 | GDALQPE | 0 (0: <20%) | 0 (0: <10%) | – | –
6 | LENTKRS | 0 (0: <20%) | 0 (0: <10%) | – | –
7 | EASAEPE | 0 (0: <20%) | 0 (0: <10%) | – | –
8 | QILSKLRL [Gln-Ile-Leu-Ser-Lys-Leu-Arg-Leu, peptide derived from GDF11 and TGFβ] | 0 (0: <20%) | – | – | Increase in Pro-Collagen I Production ([2]; peptide concentration 0.001%): + (0.001%) (+: 10-30%)
9 | Met-Val-Val (MVV) [peptide derived from GDF11] | – | 0 (0: <10%) | – | Increase in HA Production ([1]; peptide concentration 0.0001%): + (0.0001%) (+: 20-50%)
10 | Leu-Arg-Leu-Lys (LRLK) [peptide derived from GDF11 and TGFβ] | – | 0 (0: <10%) | + (0.001%) (+: 20-50%) | –
11 | RKIE: peptide sequence RKIE, origin PDGF, tested in Table 5 | 0 (0: <20%) | 0 (0: <10%) | – | –
12 | TAKDGAP [Thr-Ala-Lys-Asp-Gly-Ala-Pro, peptide derived from CTGF] | – | – | ++ (0.001%) (++:50-90%) | Increase in Pro-Collagen I Production ([2]; peptide concentration 0.00001%): + (0.00001%) (+: 10-30%)
13 | Ala-Glu-Cys-Lys (AECK) [peptide derived from PDGF] | – | 0 (0: <10%) | +++ (0.001%) (+++:90-150%) | –
